Measured values taken from US9440989B2, “Antifibrinolytic compounds” (PROYECTO DE BIOMEDICINA CIMA, S.L., priority 2012, dated 2016).
Read-outs that look alike come from different tables or passages of the source. Marks after values point to notes of the source that are not given here.

How the values were obtained:
[1] = system: human blood (whole blood clot lysis, tPA); experiment: Thromboelastometry (ROTEM, modified in-tem with tPA): whole blood clot formation and lysis, human blood; settings: read-out: EC50LT (effective concentration to delay lysis time by 50%)
Protocol: A modification of in-tem test as described below was used for the examination of antifibrinolytic effects of tested compounds and its interaction with platelets in citrated blood.
In a pre-warmed cuvette and holder 1 μL of Tissue plasminogen activator (tPA) (150,000 U/mL, Actylise), 20 μL of start-tem reagent (CaCl2), 20 μL of in-tem reagent (activators of coagulation system), 3 μL of DMSO (control) or tested compounds (CMs) in DMSO and 300 μL of citrated blood pre-warmed were pipetted. The cup holder containing the sample mixture was placed immediately on the appropriate channel. The measurement was recorded for 60 min to allow clot formation and lysis.

[2] = system: tail bleeding in wild-type C57B16 mice; experiment: Tail bleeding assay, traditional bleeding model; format: in vivo; settings: intraperitoneal 4 mg/mouse, 160 mg/Kg, tail tip removed 30 min after injection, n = 10
Protocol: (§1) Bleeding time was evaluated in 2 months old wild-type C57B16 (n=10) mice by removing the tail tip. Mice (20-25 g) were anaesthetized with 2.5% isoflurane and maintained at 37° C. on heating pads. The hemostatic efficacy was evaluated in 2 models, traditional bleeding model and hyperfibrinolytic bleeding model.
Traditional bleeding model consisted in intraperitoneal injection of different compounds (4 mg/mouse, 160 mg/Kg) dissolved in 2% carboxymethyl cellulose or vehicle. Thirty minutes after injection, 5 mm of tail tip were removed using a scalpel blade and the tail tip bathed in 1 mL of sterile saline at 37° C. The time to cessation of bleeding was measured up to 30 min. The time of bleeding was defined as the interval between initial transection and the visual cessation of bleeding.

[3] = system: tPA-prolonged tail bleeding in wild type mice (C57/Bl6); experiment: Tail bleeding assay, hyperfibrinolytic bleeding model (tPA 0.5 mg/kg); format: in vivo; settings: n≧10
Protocol: as §1
Hyperfibrinolytic bleeding model, consisted in injection of 0.5 mg/kg tPA into the ocular plexus to prolong bleeding time due to excessive fibrinolysis. […] The catheter was connected to a syringe pump (AL-1000, WPI) for the infusion of 200 μL (10% bolus, 90% perfusion during 40 minutes) of tested agents. Then, tPA (0.5 mg/kg) was injected into the ocular plexus and five minutes after tPA administration, saline or the different compounds was infused through the femoral catheter to ensure systemic distribution of all the agents. Reference compounds, TXA and Aprotinin, were administered at 300 and 10 mg/Kg respectively; however, all compounds of the invention were administered at 1 mg/Kg. Five minutes later, 5 mm of tail tip were removed using a scalpel blade and the tail tip bathed in 1 mL of sterile saline at 37° C.
The time of bleeding was defined as the interval between initial transections and the visual cessation of bleeding, that was measured up to 30 minutes. A value of 30 min was assigned to those animals bleeding longer than the observation period. […] Bleeding time was determined in wild type mice (C57/Bl6), where n≧10 per assayed compound; therefore, BT is reported as a mean value—in the case of saline, BT is reported as mean±ESM.

[4] = system: mice blood (whole blood clot lysis, tPA); experiment: Thromboelastometry (ROTEM, modified in-tem with tPA): whole blood clot formation and lysis, mice blood; format: cell-based; settings: Mus musculus, read-out: EC50LT (effective concentration to delay lysis time by 50%), assayed concentrations 1000-0.2 μM
[5] = 1 mg/Kg infused via femoral vein
[6] = human blood, tPA, assayed concentrations 1000-0.2 μM

Q: For COc1ccc(Oc2ccc(S(=O)(=O)C3(C(=O)NO)CCC4(CCCNC4)CC3)cc2)cc1 (centres unmarked) [Example 1-01], which EC50 ([1]; Homo sapiens) is on record?
A: The EC50 was under 1 µM.

Q: And the “Bleeding time” value [2]?
A: The value was 31.0 ± 3.6 s.

Q: Which results are given for COc1ccc(Oc2ccc(S(=O)(=O)C3(C(=O)NO)CCC4(CCCN(C)C4)CC3)cc2)cc1 (centres unmarked) [Example 1-02]?
A: EC50 ([1]; Homo sapiens): 10 to 25 µM; Bleeding time [2]: 39.2 ± 4.7 s

Q: How did the EC50 ([1]; Homo sapiens) turn out when O=C(O)c1ccc(Oc2ccc(S(=O)(=O)C3(C(=O)NO)CCC4(CCNCC4)C3)cc2)cc1 (centres unmarked) [Example 1-07] was run?
A: The EC50 was under 1 µM.

Q: What about the “BT (bleeding time, mean)” value [3, 5] of the same molecule?
A: Its value is “++* (10 minutes≦BT<20 minutes (++))”.

Q: What about the EC50 [4] of the same molecule?
A: The EC50 was under 0.001 µM.

Q: For CNC(=O)c1ccc(Oc2ccc(S(=O)(=O)C3(C(=O)NO)CCC4(CCNCC4)C3)cc2)cc1 (centres unmarked) [Example 1-08], which EC50 ([1]; Homo sapiens) is on record?
A: The EC50 was under 1 µM.

Q: And the “BT (bleeding time, mean)” value [3, 5]?
A: Its value is “++++**†† (BT<5 minutes (++++))”.

Q: And the EC50 [4]?
A: The EC50 was 0.001 to 1 µM.

Q: With O=C(NO)C1(S(=O)(=O)c2ccc(NC3CCCCC3)cc2)CCC2(CCNCC2)C1 (centres unmarked) [Example 1-14] as the molecule, how does the EC50 ([1]; Homo sapiens) read?
A: The EC50 was under 1 µM.

Q: What about the “BT (bleeding time, mean)” value [3, 5] of the same molecule?
A: The value was “++++**†† (BT<5 minutes (++++))”.

Q: What about the EC50 [4] of the same molecule?
A: The EC50 was 0.001 to 1 µM.

Q: What does the source list for O=C(NO)C1(S(=O)(=O)c2ccc(Oc3ccc(OC(F)(F)F)cc3)cc2)CCC2(CCNCC2)C1 (centres unmarked) [Example 1-73]?
A: EC50 ([1]; Homo sapiens): < 1 µM; BT (bleeding time, mean) [3, 5]: ++++**†† (BT<5 minutes (++++)); EC50 [4]: 1 to 10 µM

Q: With O=C(NO)C1(S(=O)(=O)c2ccccc2NC2CCCCC2)CCC2(CCNCC2)C1 (centres unmarked) [Example 1-79] as the molecule, how does the EC50 ([1]; Homo sapiens) read?
A: Its EC50 is under 1 µM.

Q: And the “BT (bleeding time, mean)” value [3, 5]?
A: Its value is “++** (10 minutes≦BT<20 minutes (++))”.

Q: What does the source list for O=C(NO)C1(S(=O)(=O)c2ccc(NC3CCCCC3)c(Cl)c2)CCC2(CCNCC2)C1 (centres unmarked) [Example 1-80]?
A: EC50 ([1]; Homo sapiens): < 1 µM; BT (bleeding time, mean) [3, 5]: +++**† (5 minutes≦BT<10 minutes (+++))

Q: Which EC50 ([1]; Homo sapiens) does the source give for O=C(NO)C1(S(=O)(=O)c2ccc(NCC3CCCCC3)cc2)CCC2(CCNCC2)C1 (centres unmarked) [Example 1-82] here?
A: Its EC50 is under 1 µM.

Q: What about the “BT (bleeding time, mean)” value [3, 5] of the same molecule?
A: The value was “+++** (5 minutes≦BT<10 minutes (+++))”.

Q: How did the EC50 ([1]; Homo sapiens) turn out when O=C(NO)C1(S(=O)(=O)c2ccc(NC3CCOCC3)cc2)CCC2(CCNCC2)C1 (centres unmarked) [Example 1-96] was run?
A: Its EC50 is under 1 µM.

Q: And the “BT (bleeding time, mean)” value [3, 5]?
A: The value was “+++** (5 minutes≦BT<10 minutes (+++))”.

Q: How did the EC50 ([1]; Homo sapiens) turn out when O=C(Oc1ccc(S(=O)(=O)C2(C(=O)NO)CCC3(CCNCC3)C2)cc1)c1ccc(OC(F)(F)F)cc1 (centres unmarked) [Example 1-102] was run?
A: The EC50 was over 25 µM.

Q: What about the “BT (bleeding time, mean)” value [3, 5] of the same molecule?
A: Its value is “++* (10 minutes≦BT<20 minutes (++))”.

Q: Which EC50 ([1]; Homo sapiens) does the source give for COc1ccc(S(=O)(=O)C2(C(=O)NO)CCC3(CCNCC3)C2)cc1Cl (centres unmarked) [Example 1-107] here?
A: The EC50 was under 1 µM.

Q: And the “BT (bleeding time, mean)” value [3, 5]?
A: The value was “+++** (5 minutes≦BT<10 minutes (+++))”.

Q: With O=C(NO)C1(S(=O)(=O)c2ccc(OCc3cn[nH]c3)cc2)CCC2(CCNCC2)C1 (centres unmarked) [Example 1-112] as the molecule, how does the EC50 ([1]; Homo sapiens) read?
A: Its EC50 is under 1 µM.

Q: What about the “BT (bleeding time, mean)” value [3, 5] of the same molecule?
A: The value was “+++** (5 minutes≦BT<10 minutes (+++))”.

Q: With CNC(=O)c1ccc(Oc2cccc(S(=O)(=O)C3(C(=O)NO)CCC4(CCNCC4)C3)c2)cc1 (centres unmarked) [Example 1-126] as the molecule, how does the EC50 ([1]; Homo sapiens) read?
A: The EC50 was over 25 µM.

Q: Which EC50 ([1]; Homo sapiens) does the source give for O=C(O)c1ccc(Oc2cccc(S(=O)(=O)C3(C(=O)NO)CCC4(CCNCC4)C3)c2)cc1 (centres unmarked) [Example 1-127] here?
A: The EC50 was under 1 µM.

Q: O=C(Oc1ccc(S(=O)(=O)C2(C(=O)NO)CCC3(CCNCC3)C2)cc1Cl)c1ccc(OC(F)(F)F)cc1 (centres unmarked) [Example 1-128, N-hydroxy-3-(3-chloro-4-(4-(trifluoromethoxy)Benzoyloxy)Phenylsulfonyl)-8-azaspiro[4.5]decane-3-carboxamide] was tested. Which EC50 ([1]; Homo sapiens) did it give?
A: The EC50 was over 25 µM.

Q: COc1ccc(C(=O)Oc2ccc(S(=O)(=O)C3(C(=O)NO)CCC4(CCNCC4)C3)cc2Cl)cc1 (centres unmarked) [Example 1-129] was tested. Which EC50 ([1]; Homo sapiens) did it give?
A: Its EC50 is 1 to 10 µM.

Q: How did the EC50 ([1]; Homo sapiens) turn out when O=C(NO)C1(S(=O)(=O)c2cccc(OCc3ccc(OC(F)(F)F)cc3)c2)CCC2(CCNCC2)C1 (centres unmarked) [Example 1-130] was run?
A: The EC50 was 1 to 10 µM.

Q: How did the EC50 ([1]; Homo sapiens) turn out when COc1ccc(S(=O)(=O)[C@]2(C(=O)NO)CCC3(CCNCC3)C2)cc1Cl [Example 1-131] was run?
A: Its EC50 is under 1 µM.

Q: Which EC50 ([1]; Homo sapiens) does the source give for COc1ccc(S(=O)(=O)[C@@]2(C(=O)NO)CCC3(CCNCC3)C2)cc1Cl [Example 1-132] here?
A: Its EC50 is under 1 µM.

Q: CNC(=O)c1ccc(Oc2ccc(S(=O)(=O)C3(C(=O)NO)CCC4(CCNCC4)C3)cc2)cc1 (centres unmarked) [Example 1-133] was tested. Which EC50 [1, 6] did it give?
A: The EC50 was under 1 µM.

Q: How did the EC50 [1, 6] turn out when CNC(=O)c1ccc(Oc2ccc(S(=O)(=O)C3(C(=O)NO)CCC4(CCNCC4)C3)cc2)cc1 (centres unmarked) [Example 1-134] was run?
A: Its EC50 is under 1 µM.

Q: O=C(NO)C1(S(=O)(=O)c2ccccc2NC2CCCCC2)CCC2(CCNCC2)C1 (centres unmarked) [Example 1-138] was tested. Which EC50 [1, 6] did it give?
A: The EC50 was under 1 µM.

Q: For NC[C@H]1CC[C@H](C(=O)O)CC1 [TXA, tranexamic acid, reference compound], which EC50 ([1]; Homo sapiens) is on record?
A: The EC50 was 1 to 10 µM.

Q: What about the “BT (bleeding time, mean)” value ([3]; 300 mg/Kg infused via femoral vein) of the same molecule?
A: Its value is “++** (10 minutes≦BT<20 minutes (++))”.

Q: What about the EC50 [4] of the same molecule?
A: Its EC50 is 0.001 to 1 µM.

Q: Which “BT (bleeding time, mean)” value ([3]; 10 mg/Kg infused via femoral vein) does the source give for Aprotinin [reference compound] here?
A: The value was “++** (10 minutes≦BT<20 minutes (++))”.
